Data taken from patent US12396471B2, “Composition containing sesamin and PQQ” (SUNTORY HOLDINGS LIMITED, priority 2019, dated 2025).

System: TIG-3 cells
Test: Evaluation test of mitochondrial function: amount of ATP production (decrease in oxygen consumption rate by oligomycin) after H2O2 treatment
Assay type: cell-based
Settings: for Measured value: amount of ATP production (amount of decrease in oxygen consumption rate by the ATP synthase inhibitor): TIG-3 cells cultured 24 h with test substance, then H2O2 800 μM for two hours, XF analyzer, concentrations of SE and PQQ·2Na per example; for Recovery rate (%) from Comparative Example 1: measured value divided by that of Comparative Example 1 (H2O2 800 μM only) x 100
Procedure: To examine mitochondrial function, TIG-3 cells at 5.5×10^3 cells/well were seeded onto cell culture plates, and cultured at 37° C. with CO2 (5%) for 24 hours. After 24 hours of culturing, compositions each containing a sesamin-episesamin mixture and PQQ were added to the media in the wells at the respective concentrations shown in Table 1 below, and cultured for 24 hours. Subsequently, the media containing the sesamin-episesamin mixture and the PQQ were removed, and the cells in the wells were treated with media containing H2O2 (800 μM) for two hours. Subsequently, each medium was replaced with an analysis medium, and the oxygen consumption rate was analyzed using an analyzer (XF analyzer, Agilent Technologies Japan, Ltd.). After completion of analysis, the nuclei were stained with Hoechst, and the cells were photographed by a fluorescence microscope “BZ-x” (Keyence Corporation). The number of cells was counted by image analysis. The amount of ATP production was the amount of decrease in oxygen consumption rate by the ATP synthase inhibitor (oligomycin).
(§1) To examine mitochondrial function, TIG-3 cells at 5.5×10^3 cells/well were seeded onto a dedicated plate, and cultured at 37° C. with CO2 (5%) for 24 hours. The cells were further cultured for 26 hours without adding a sesamin-episesamin mixture and a composition containing PQQ to the medium 24 hours after the first culturing and without treating cells in the well with a medium containing H2O2 (800 μM) for two hours. Then, the oxygen consumption rate in Reference Example 1 was analyzed and the number of cells was counted as in Example 1, except for the differences described above. The amount of ATP production was also measured.
as §1, with “24” for “26”, “culturing.” for “culturing and without treating cells in the well with a medium containing H2O2 (800 μM) for two hours.”, “Comparative” for “Reference”
To examine mitochondrial function, TIG-3 cells at 5.5×10^3 cells/well were seeded onto a dedicated plate, and cultured at 37° C. with CO2 (5%) for 24 hours. After 24 hours of culturing, a sesamin-episesamin mixture or PQQ was added to each medium in the wells at the corresponding concentration shown in Table 1 below, and cultured for 24 hours. Except what is described above, the oxygen consumption rate in each of Comparative Examples 2 to 9 was analyzed, and the number of cells was counted as in Example 1. The amount of ATP production was measured.
In Table 1, values in “Measured value” (pmol/min/10^3 cells) show the amount of ATP production (the amount of decrease in oxygen consumption rate by the ATP synthase inhibitor) determined above.
Values in “Recovery rate (%) from Comparative Example 1” are each obtained by dividing a measured value in one example or comparative example by the measured value of Comparative Example 1 and multiplying the resulting value with 100. A higher recovery rate means a larger amount of ATP production. […] In FIG. 1, “SE” indicates the sesamin-episesamin mixture.

Structure (SMILES) | Measured value: amount of ATP production (amount of decrease in oxygen consumption rate by the ATP synthase inhibitor) [pmol/min/10^3 cells] | decline in the amount of ATP production compared to the H2O2-treated group according to Comparative Example 1 (TIG-3 cells, H2O2 800 μM) [%] | Recovery rate (%) from Comparative Example 1 (TIG-3 cells) [%] | increase in the amount of ATP production compared to the H2O2-treated group according to Comparative Example 1 (TIG-3 cells, H2O2 800 μM) [%]
O=C([O-])c1cc(C(=O)[O-])c2c(n1)C(=O)C(=O)c1cc(C(=O)O)[nH]c1-2.[Na+].[Na+] [Comparative Example 5, PQQ·2Na] | 6.06 | 5.5 | 94.5 | –
O=C([O-])c1cc(C(=O)[O-])c2c(n1)C(=O)C(=O)c1cc(C(=O)O)[nH]c1-2.[Na+].[Na+] [Comparative Example 8, PQQ·2Na] | 7.40 | – | 115.3 | 15.3
O=C([O-])c1cc(C(=O)[O-])c2c(n1)C(=O)C(=O)c1cc(C(=O)O)[nH]c1-2.[Na+].[Na+] [Comparative Example 9, PQQ·2Na] | 7.56 | – | 117.8 | 17.8
O=C([O-])c1cc(C(=O)[O-])c2c(n1)C(=O)C(=O)c1cc(C(=O)O)[nH]c1-2.[Na+].[Na+] [Comparative Example 7, PQQ·2Na] | 6.71 | – | 104.6 | 4.6
O=C([O-])c1cc(C(=O)[O-])c2c(n1)C(=O)C(=O)c1cc(C(=O)O)[nH]c1-2.[Na+].[Na+] [Comparative Example 6, PQQ·2Na] | 6.49 | – | 101.1 | 1.1
